The structures appear in SMILES notation.

The term melting point denotes the temperature of the solid-liquid transition.

One data set can be described thus: Bisbenzotriazole solubility in adhesive GELVA 263. The class given is physicochemical. The settings on record: in GELVA 263 polyacrylate adhesive; approximate maximum concentration with no sign of crystallization after solvent evaporation; weight added to GELVA 263 as is.
Experimental: To measure the solubility of the instant bisbenzotriazole UV absorber in an adhesive composition, the compound is added to a typical adhesive GELVA® 263 (Solutia) which is a 44.5% solution of a polyacrylate in a mixture of ethyl acetate and hexane. The polyacrylate is a copolymer of methyl methacrylate, 2-ethylhexyl methacrylate and glycidyl methacrylate.
The test compound is dissolved in 5 mL of ethyl acetate, toluene or a mixture of ethyl acetate and toluene. To the solution is added 5 g of GELVA® 263. 2-3 mL of the resulting solution is place into individual watch glasses. Solubility is then evaluated based upon observed crystallization once the solvent has evaporated. Observations start after several hours and then continue over a period of several weeks.
Solubilities are reported in weight of total bisbenzotriazole added to GELVA® 263 as is.
In the case of `CC(C)(C)c1cc(Cc2cc(C(C)(C)C)cc(-n3nc4ccc(S(=O)(=O)c5ccccc5)cc4n3)c2O)c(O)c(-n2nc3ccc(S(=O)(=O)c4ccccc4)cc3n2)c1` [A, 2,2′-Methylene-bis[6-(5-phenylsulfonyl-2H-benzotriazol-2-yl)-4-tert-butylphenol]], the “Solubility without Crystallization (%)” value is listed as 0.0%.

With `CC(C)(c1ccccc1)c1cc(-n2nc3ccccc3n2)c(O)c(C(C)(C)c2ccccc2)c1` [B, 2-(2-hydroxy-3,5-di-α-cumylphenyl)-2H-benzotriazole], the “Solubility without Crystallization (%)” value is 2.0%.

Take `CC(C)(C)c1cc(-n2nc3ccc(Cl)cc3n2)c(O)c(C(C)(C)C)c1` [C, 5-chloro-2-(2-hydroxy-3,5-di-tert-butylphenyl)-2H-benzotriazole]: the “Solubility without Crystallization (%)” value is on record as 2.0%.

As for `CC(C)(C)CC(C)(C)c1cc(Cc2cc(C(C)(C)CC(C)(C)C)cc(-n3nc4ccc(C(F)(F)F)cc4n3)c2O)c(O)c(-n2nc3ccccc3n2)c1` [D, methylene-2-[4-tert-octyl-6-(2H-benzotriazol-2-yl)phenol]-2′-[4-tert-octyl-6-(5-trifluoromethyl-2H-benzotriazol-2-yl)phenol]], the “Solubility without Crystallization (%)” value was 2.0%.

For the compound `CC(C)(C)CC(C)(C)c1cc(Cc2cc(C(C)(C)CC(C)(C)C)cc(-n3nc4ccc(C(F)(F)F)cc4n3)c2O)c(O)c(-n2nc3ccc(C(F)(F)F)cc3n2)c1` [E, 2,2′-methylene-bis[6-(5-trifluoromethyl-2H-benzotriazol-2-yl)-4-tert-octylphenol]], the “Solubility without Crystallization (%)” value is recorded as 4.0%.

`CC(C)(C)CC(C)(C)c1cc(Cc2cc(C(C)(C)C)cc(-n3nc4ccc(Cl)cc4n3)c2O)c(O)c(-n2nc3ccc(C(F)(F)F)cc3n2)c1` [F, Methylene-2-[4-tert-butyl-6-(5-chloro-2H-benzotriazol-2-yl)phenol]-2 ′-[4-tert-octyl-6-(5-trifluoromethyl-2H-benzotriazol-2-yl)phenol]]: the “Solubility without Crystallization (%)” value is 11.0%.

Take `CC(C)(C)CC(C)(C)c1cc(Cc2cc(C(C)(C)C)cc(-n3nc4ccc(S(=O)(=O)c5ccccc5)cc4n3)c2O)c(O)c(-n2nc3ccc(C(F)(F)F)cc3n2)c1` [G, Methylene-2-[4-tert-butyl-6-(5-phenylsulfonyl-2H-benzotriazol-2-yl)phenol]-2′-[4-tert-octyl-6-(5-trifluoromethyl-2H-benzotriazol-2-yl)phenol]]: the “Solubility without Crystallization (%)” value was 22.0%.

Turning to `CC(C)(C)CC(C)(C)c1cc(Cc2cc(C(C)(C)C)cc(-n3nc4ccc(Sc5ccccc5)cc4n3)c2O)c(O)c(-n2nc3ccc(C(F)(F)F)cc3n2)c1` [H, Methylene-2-[4-tert-butyl-6-(5-phenylthio-2H-benzotriazol-2-yl)phenol]-2′-[4-tert-octyl-6-(5-trifluoromethyl-2H-benzotriazol-2-yl)phenol]], the “Solubility without Crystallization (%)” value worked out at 22.0%.

Test in a further data set: not given
Conditions: not given
`CC(C)(C)c1cc(Cc2cc(C(C)(C)C)cc(-n3nc4ccc(S(=O)(=O)c5ccccc5)cc4n3)c2O)c(O)c(-n2nc3ccc(S(=O)(=O)c4ccccc4)cc3n2)c1` [A, 2,2′-Methylene-bis[6-(5-phenylsulfonyl-2H-benzotriazol-2-yl)-4-tert-butylphenol]] registered a melting point of 224 to 234 °C.
